# According to patent US20250170258A1, “DOSAGE REGIMEN” (priority 2022, published 2025):
# Tested on: pancreatic cancer PAXF 1657 patient-derived xenograft
# Experiment: pancreatic cancer PAXF 1657 patient-derived xenograft model
# Assay type: in vivo
# Details: PAXF 1657 PDX, tested alone (single agent)
# Description: Gemcitabine is a nucleoside metabolic inhibitor. It inhibits DNA synthesis by inhibiting the ribonucleotide reductase, cell cycle-specific for the S-phase (also blocks cellular progression at G1/S-phase). It has been used as monotherapy or combination chemotherapy to treat various cancers. […] ADCT-601 and gemcitabine were tested either alone or in combination in the pancreatic cancer PAXF 1657 patient-derived xenograft model.
compound,measurement,value
Nc1ccn([C@@H]2O[C@H](CO)[C@@H](O)C2(F)F)c(=O)n1 [gemcitabine],anti-tumour activity,limited anti-tumour activity
